From ChEMBL document CHEMBL5356993, “Novel pyrazolo[3,4-d]pyrimidine derivatives: design, synthesis, anticancer evaluation, VEGFR-2 inhibition, and antiangiogenic activity” (RSC Med Chem, 2023) come the findings set out here.

Assay [1] has as its system HUVEC. As to the kind of experiment: Antiangiogenic activity against HUVEC cells assessed as wound closure at IC50 incubated for 72 hrs by wound healing assay (reference value: 98.518 %). It is filed as functional, Homo sapiens.
Assay [2] concerns MDA-MB-468. As to the kind of experiment: Induction of cell cycle arrest in human MDA-MB-468 cells assessed as accumulation of cells at G0 to G1 phase at IC50 incubated for 24 hrs by RNase/PI staining based flow cytometry (reference value: 59.02 %). It is filed as functional. Background: In flow cytometry, cells or beads pass a laser one at a time.
Assay [3] concerns MDA-MB-468. As to the kind of experiment: Induction of cell cycle arrest in human MDA-MB-468 cells assessed as accumulation of cells at S phase at IC50 incubated for 24 hrs by RNase/PI staining based flow cytometry (reference value: 24.85 %). Type of assay: functional.
Assay [4] concerns MDA-MB-468. In words: Induction of cell cycle arrest in human MDA-MB-468 cells assessed as accumulation of cells at G2/M phase at IC50 incubated for 24 hrs by RNase/PI staining based flow cytometry (reference value: 16.13 %). Type of assay: functional.
The test system of assay [5] is MDA-MB-468. As to the kind of experiment: Induction of cell cycle arrest in human MDA-MB-468 cells assessed as fold increase in cell population at S phase at IC50 incubated for 24 hrs by RNase/PI staining based flow cytometry relative to control. Type of assay: functional.
Assay [6] deals with MDA-MB-468. As to the kind of experiment: Induction of cell cycle arrest in human MDA-MB-468 cells assessed as decrease in cell population at G0 to G1 phase at IC50 incubated for 24 hrs by RNase/PI staining based flow cytometry relative to control. Also noted: scale not given: the % may be the effect or the level left. It is filed as functional.
In assay [7] the test system is MDA-MB-468. In words: Induction of apoptosis in human MDA-MB-468 cells assessed as total apoptotic cells at IC50 incubated for 24 hrs by Annexin V/PI staining based flow cytometry (reference value: 2.28 %). It is filed as functional.
The test system of assay [8] is MDA-MB-468. As to the kind of experiment: Induction of apoptosis in human MDA-MB-468 cells assessed as early apoptotic cells at IC50 incubated for 24 hrs by Annexin V/PI staining based flow cytometry (reference value: 0.52 %). It is filed as functional.
The subject of assay [9] is MDA-MB-468. In words: Induction of apoptosis in human MDA-MB-468 cells assessed as late apoptotic cells at IC50 incubated for 24 hrs by Annexin V/PI staining based flow cytometry (reference value: 0.17 %). It is filed as functional.
For assay [10], the system named is MDA-MB-468. In words: Induction of apoptosis in human MDA-MB-468 cells assessed as necrotic cells at IC50 incubated for 24 hrs by Annexin V/PI staining based flow cytometry (reference value: 1.59 %). It is filed as functional.
Assay [11] relates to MDA-MB-468. As to the kind of experiment: Induction of apoptosis in human MDA-MB-468 cells assessed as fold increase in caspase-3 level incubated for 2 hrs by ELISA relative to control. It is filed as functional. In general terms: An ELISA detects its analyte on a solid surface through an enzyme-linked reagent.
In assay [12] the test system is MDA-MB-468. As to the kind of experiment: Induction of apoptosis in human MDA-MB-468 cells assessed as increase in caspase-3 level incubated for 2 hrs by ELISA (reference value: 2.109 ng/ml). Type of assay: functional.

On to `Cc1nc2c(cnn2-c2ccccc2)c(=O)n1-c1ccc(NC(=O)c2ccc(F)cc2)cc1`, for which the Activity in assay [1] was determined as 75.555%; in assay [2], 52.86%; in assay [3], 38.02%; in assay [4], 9.12%; in [6], 10.43%; in [7], 43.28%. The Activity amounted to 15.85% in assay [8], 22.49% in assay [9], 4.94% in assay [10] and 15.44 ng/mL in assay [12]. The “fold change (FC)” value in assay [5] is 1.53; in assay [11] it was 7.32.
